Results reported in the supplement of paper PMC10883282.
± gives the standard deviation of the averaged measurements.

Experiments:
Assay in all cases: relative viability vs DMSO control (72 h) (fraction); higher = more viable cells
HT1080 = test system: HT1080
In short: (§1)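 Relative viability was measured with ATPLite and expressed as percent growth, averaged across up to triplicate wells. Sarcoma cell lines had been seeded in 384-well plates to reach 80–90% confluence, dosed after 24 h, and incubated 72 h at 37 °C, 5% CO2. All data were rescaled on a scale where 1 is full and 0 is none.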

MES-SA = test system: MES-SA
In short: as §1

SW684 = test system: SW684
In short: as §1

KHOS-NP = test system: KHOS-NP
In short: as §1

VA-ES-BJ = test system: VA-ES-BJ
In short: as §1

SK-LMS-1 = test system: SK-LMS-1
In short: as §1

SW872 = test system: SW872
In short: as §1

SK-ES-1 = test system: SK-ES-1
In short: as §1

G401 = test system: G401
In short: as §1

SW1353 = test system: SW1353
In short: as §1

RD-ES = test system: RD-ES
In short: as §1

RD = test system: RD
In short: as §1

CCOc1cc2ncc(C#N)c(Nc3ccc(OCc4ccccn4)c(Cl)c3)c2cc1NC(=O)/C=C/[C@H]1CCCN1C [Pyrotinib]
Details	relative viability
G401, 5.081 pM	1.04 ± 0.035
G401, 15.24 pM	1.03 ± 0.016
G401, 45.72 pM	1.03 ± 0.041
G401, 0.000137174 µM	1.05 ± 0.037
G401, 0.000411523 µM	1.06 ± 0.0079
G401, 0.00123457 µM	1.02 ± 0.035
G401, 0.0037037 µM	1.02 ± 0.021
G401, 0.0111111 µM	1.024 ± 0.0064
G401, 0.0333333 µM	1.02 ± 0.049
G401, 0.1 µM	1.02 ± 0.049
G401, 0.3 µM	1.01 ± 0.013
HT1080, 5.081 pM	1.07 ± 0.012
HT1080, 15.24 pM	1.13 ± 0.054
HT1080, 45.72 pM	1.103 ± 0.0081
HT1080, 0.000137174 µM	1.13 ± 0.014
HT1080, 0.000411523 µM	1.11 ± 0.019
HT1080, 0.00123457 µM	1.06 ± 0.027
HT1080, 0.0037037 µM	1.12 ± 0.012
HT1080, 0.0111111 µM	1.09 ± 0.021
HT1080, 0.0333333 µM	1.078 ± 0.01
HT1080, 0.1 µM	1.07 ± 0.03
HT1080, 0.3 µM	1.08 ± 0.052
KHOS-NP, 5.081 pM	1.08 ± 0.029
KHOS-NP, 15.24 pM	1.12 ± 0.014
KHOS-NP, 45.72 pM	1.08 ± 0.025
KHOS-NP, 0.000137174 µM	1.11 ± 0.013
KHOS-NP, 0.000411523 µM	1.07 ± 0.015
KHOS-NP, 0.00123457 µM	1.09 ± 0.013
KHOS-NP, 0.0037037 µM	1.07 ± 0.014
KHOS-NP, 0.0111111 µM	1.1 ± 0.018
KHOS-NP, 0.0333333 µM	1.073 ± 0.0071
KHOS-NP, 0.1 µM	1.09 ± 0.036
KHOS-NP, 0.3 µM	1.08 ± 0.039
MES-SA, 5.081 pM	0.967 ± 0.018
MES-SA, 15.24 pM	0.957 ± 0.026
MES-SA, 45.72 pM	0.9512 ± 0.0085
MES-SA, 0.000137174 µM	0.959 ± 0.036
MES-SA, 0.000411523 µM	0.971 ± 0.043
MES-SA, 0.00123457 µM	0.965 ± 0.024
MES-SA, 0.0037037 µM	0.948 ± 0.023
MES-SA, 0.0111111 µM	0.954 ± 0.022
MES-SA, 0.0333333 µM	0.936 ± 0.051
MES-SA, 0.1 µM	0.91 ± 0.039
MES-SA, 0.3 µM	0.863 ± 0.021
RD, 5.081 pM	1.06 ± 0.033
RD, 15.24 pM	1.08 ± 0.02
RD, 45.72 pM	1.11 ± 0.016
RD, 0.000137174 µM	1.11 ± 0.032
RD, 0.000411523 µM	1.07 ± 0.063
RD, 0.00123457 µM	1.08 ± 0.07
RD, 0.0037037 µM	1.14 ± 0.018
RD, 0.0111111 µM	1.08 ± 0.078
RD, 0.0333333 µM	1.11 ± 0.025
RD, 0.1 µM	1.06 ± 0.041
RD, 0.3 µM	1.07 ± 0.056
RD-ES, 5.081 pM	0.971 ± 0.028
RD-ES, 15.24 pM	0.968 ± 0.014
RD-ES, 45.72 pM	0.969 ± 0.026
RD-ES, 0.000137174 µM	0.978 ± 0.032
RD-ES, 0.000411523 µM	0.983 ± 0.039
RD-ES, 0.00123457 µM	0.971 ± 0.017
RD-ES, 0.0037037 µM	0.965 ± 0.022
RD-ES, 0.0111111 µM	0.9672 ± 0.0053
RD-ES, 0.0333333 µM	0.953 ± 0.012
RD-ES, 0.1 µM	0.955 ± 0.047
RD-ES, 0.3 µM	0.95 ± 0.02
SK-ES-1, 5.081 pM	0.989 ± 0.035
SK-ES-1, 15.24 pM	1.02 ± 0.041
SK-ES-1, 45.72 pM	1.07 ± 0.028
SK-ES-1, 0.000137174 µM	1.07 ± 0.045
SK-ES-1, 0.000411523 µM	1.02 ± 0.034
SK-ES-1, 0.00123457 µM	1.04 ± 0.041
SK-ES-1, 0.0037037 µM	1.02 ± 0.047
SK-ES-1, 0.0111111 µM	1.04 ± 0.044
SK-ES-1, 0.0333333 µM	0.992 ± 0.058
SK-ES-1, 0.1 µM	0.987 ± 0.042
SK-ES-1, 0.3 µM	0.8694 ± 0.0074
SK-LMS-1, 5.081 pM	1.06 ± 0.042
SK-LMS-1, 15.24 pM	1.06 ± 0.049
SK-LMS-1, 45.72 pM	1.06 ± 0.037
SK-LMS-1, 0.000137174 µM	1.07 ± 0.06
SK-LMS-1, 0.000411523 µM	1.08 ± 0.03
SK-LMS-1, 0.00123457 µM	1.06 ± 0.036
SK-LMS-1, 0.0037037 µM	1.09 ± 0.067
SK-LMS-1, 0.0111111 µM	1.08 ± 0.035
SK-LMS-1, 0.0333333 µM	1.07 ± 0.026
SK-LMS-1, 0.1 µM	1.03 ± 0.049
SK-LMS-1, 0.3 µM	1 ± 0.014
SW684, 5.081 pM	1.15 ± 0.079
SW684, 15.24 pM	1.24 ± 0.029
SW684, 45.72 pM	1.221 ± 0.0063
SW684, 0.000137174 µM	1.188 ± 0.0051
SW684, 0.000411523 µM	1.19 ± 0.025
SW684, 0.00123457 µM	1.17 ± 0.033
SW684, 0.0037037 µM	1.21 ± 0.048
SW684, 0.0111111 µM	1.19 ± 0.12
SW684, 0.0333333 µM	1.15 ± 0.056
SW684, 0.1 µM	1.17 ± 0.051
SW684, 0.3 µM	1.1 ± 0.036
SW872, 5.081 pM	1.05 ± 0.049
SW872, 15.24 pM	1.06 ± 0.054
SW872, 45.72 pM	1.06 ± 0.044
SW872, 0.000137174 µM	1.06 ± 0.032
SW872, 0.000411523 µM	1.07 ± 0.038
SW872, 0.00123457 µM	1.05 ± 0.016
SW872, 0.0037037 µM	0.987 ± 0.077
SW872, 0.0111111 µM	1.01 ± 0.057
SW872, 0.0333333 µM	1.04 ± 0.016
SW872, 0.1 µM	0.987 ± 0.046
SW872, 0.3 µM	0.913 ± 0.049
SW1353, 5.081 pM	1.06 ± 0.036
SW1353, 15.24 pM	1.05 ± 0.025
SW1353, 45.72 pM	1.03 ± 0.023
SW1353, 0.000137174 µM	0.994 ± 0.018
SW1353, 0.000411523 µM	1.01 ± 0.027
SW1353, 0.00123457 µM	1.04 ± 0.041
SW1353, 0.0037037 µM	1.02 ± 0.031
SW1353, 0.0111111 µM	1.02 ± 0.089
SW1353, 0.0333333 µM	0.947 ± 0.033
SW1353, 0.1 µM	0.889 ± 0.026
SW1353, 0.3 µM	0.791 ± 0.029
VA-ES-BJ, 5.081 pM	1.06 ± 0.045
VA-ES-BJ, 15.24 pM	1.05 ± 0.021
VA-ES-BJ, 45.72 pM	1.02 ± 0.042
VA-ES-BJ, 0.000137174 µM	1.04 ± 0.022
VA-ES-BJ, 0.000411523 µM	0.99 ± 0.0086
VA-ES-BJ, 0.00123457 µM	0.981 ± 0.038
VA-ES-BJ, 0.0037037 µM	1.02 ± 0.013
VA-ES-BJ, 0.0111111 µM	0.983 ± 0.025
VA-ES-BJ, 0.0333333 µM	0.969 ± 0.042
VA-ES-BJ, 0.1 µM	0.9689 ± 0.0074
VA-ES-BJ, 0.3 µM	0.942 ± 0.037
